Reference: patent US9371331B2, “Modulators of methyl modifying enzymes, compositions and uses thereof” (Constellation Pharmaceuticals, Inc., priority 2012, dated 2016)
Where two headings read alike, the source gives them in different places.

Legend:
Y641N EZH2 = Y641N EZH2 (Homo sapiens, UniProt Q15910, Y641N); assay: Y641N EZH2 assay: as EZH2 assay, with reconstituted H3K27Me2 oligonucleosomes as substrate; format: biochemical
[1] = test system: H3K27me3 mark in HeLa cells; assay: H3K27me3 Alpha Hela Assay (AlphaLISA); format: cell-based; settings: Homo sapiens, 72 hrs, read-out: H3K27me3_Alpha_HeLa_ (EC50)
Method: H3K27me3 Alpha Hela Assay (AlphaLISA).
Ten different doses of each test compound (in a series of 3-fold dilutions) were plated in duplicate 384-well tissue culture treated plates (Catalog #781080; Greiner Bio One; Monroe, N.C.). Hela cells grown in culture were trypsinized and counted using a Countess® cell counter (Catalog #C10281; Life Technologies, Grand Island, N.Y.). Cell were diluted to 67,000 cells per mL in 10% DMEM (Catalog #10569-010 Life Technologies. Grand Island, N.Y.) and 15 μL (1,000 cells) were plated into each well using the Biotek MicroFlo™ Select Dispenser (BioTek Instruments. Inc. Vermont, USA),) of the 384-well plate. Plates were incubated at 37° C./5% CO2 for 72 hrs. One of the duplicate plates was processed for HeLa assay and the other for viability.
To the plate processed for AlphaLISA was added 5 μL per well Cell-Histone Lysis buffer (1×) (Catalog #AL009F1 Perkin Elmer; Waltham, Mass.) and the plate was incubated at RT for 30 minutes on a plate shaker with low speed (Model#4625-Q Thermo Scientific; Waltham, Mass.). Then, 10 µL per well Histone Extraction buffer (catalog #AL009F2: Perkin Elmer; Waltham, Mass.) was added and the plate further incubated at RT for 20 min on plate shaker with low speed. To each well was then added 10 μL per well of a 5× mix of anti-K27me3 acceptor beads plus Biotinylated anti-Histone H3 (C-ter) Antibody (diluted to 3 nM final) (Catalog #AL118 Perkin Elmer; Waltham, Mass.). Dilution of the acceptor beads and then anti-Histone H3 was with 1× Histone Detection buffer (Catalog #AL009F3 Perkin Elmer; Waltham, Mass.) which was produced diluted from the 10× stock provided. The plate was sealed with an aluminum plate sealer and incubated at 23° C. for 60 min. We then added 10 μL 5× solution of Streptavidin Donor beads (Catalog #6760002 Perkin Elmer; Waltham, Mass.) (20 μg/mL final in 1× Histone Detection Buffer), sealed the plate with Aluminum plate sealer and incubated at 23° C. for 30 min. The plates were then read using an EnVision-Alpha Reader (model #2104 Perkin Elmer: Waltham, Mass.).
Data from both assays was analyzed using Assay Assistant (Constellation Pharmaceuticals In-house product) and Activity Base (IDBS Ltd. Surrey, UK) template. Data files were imported to Assay Assistant and assay conditions were specified. A unique Analysis ID was created and the data files exported to Activity Base. An analysis template was created on Activity Base to measure dose-dependent inhibition of H3K27me3 mark and cell viability respectively. Readout of DMSO wells were used to normalize the data. Resulting curves were fitted using Activity base software Model 205 (IDBS Ltd, Surrey, UK). The data was checked for quality, validated and integrated in excel format using SARview (IDBS Ltd, Surrey, UK).

EZH2 (rPRC2) = EZH2 (rPRC2) (Homo sapiens, UniProt Q15910); assay: EZH2 assay: rPRC2, biotinylated oligonucleosomes, 3H SAM methyl transfer (FlashPlate scintillation); format: biochemical; settings: biotinylated oligonucleosome substrate
Chain of EZH2 (rPRC2) (Q15910 whole entry): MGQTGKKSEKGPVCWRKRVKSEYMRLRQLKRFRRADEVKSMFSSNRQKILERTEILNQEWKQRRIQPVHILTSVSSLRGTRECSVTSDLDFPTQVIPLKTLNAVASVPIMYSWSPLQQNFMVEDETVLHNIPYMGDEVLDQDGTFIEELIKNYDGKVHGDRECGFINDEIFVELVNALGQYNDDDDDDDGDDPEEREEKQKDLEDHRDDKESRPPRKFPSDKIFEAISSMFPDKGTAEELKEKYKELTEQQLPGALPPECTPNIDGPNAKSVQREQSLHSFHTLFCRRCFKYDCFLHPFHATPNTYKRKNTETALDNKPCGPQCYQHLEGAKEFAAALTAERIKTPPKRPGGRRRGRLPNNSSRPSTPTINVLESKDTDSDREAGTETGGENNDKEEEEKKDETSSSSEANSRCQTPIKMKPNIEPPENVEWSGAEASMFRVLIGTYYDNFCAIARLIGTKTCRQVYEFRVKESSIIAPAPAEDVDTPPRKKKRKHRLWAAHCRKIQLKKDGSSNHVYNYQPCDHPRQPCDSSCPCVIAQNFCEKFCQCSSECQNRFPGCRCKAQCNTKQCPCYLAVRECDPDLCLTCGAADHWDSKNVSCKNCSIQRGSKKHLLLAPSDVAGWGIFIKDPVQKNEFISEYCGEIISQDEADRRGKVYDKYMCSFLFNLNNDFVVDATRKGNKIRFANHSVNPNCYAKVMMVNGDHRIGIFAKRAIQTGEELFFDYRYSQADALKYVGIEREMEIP
Chain of EZH2 (rPRC2) (O75530 whole entry partner): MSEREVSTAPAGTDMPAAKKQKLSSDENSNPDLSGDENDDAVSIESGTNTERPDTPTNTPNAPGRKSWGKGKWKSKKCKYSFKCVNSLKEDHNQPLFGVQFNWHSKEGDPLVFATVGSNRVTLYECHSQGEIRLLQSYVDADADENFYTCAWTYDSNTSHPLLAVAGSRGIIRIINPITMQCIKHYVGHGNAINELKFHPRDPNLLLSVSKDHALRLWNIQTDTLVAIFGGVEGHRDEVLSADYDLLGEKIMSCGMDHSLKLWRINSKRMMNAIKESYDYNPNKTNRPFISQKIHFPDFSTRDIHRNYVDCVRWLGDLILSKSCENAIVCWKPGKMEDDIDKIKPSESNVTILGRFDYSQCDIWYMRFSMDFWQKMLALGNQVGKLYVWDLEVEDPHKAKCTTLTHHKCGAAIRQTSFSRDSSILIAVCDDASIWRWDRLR
Chain of EZH2 (rPRC2) (Q15022 whole entry partner): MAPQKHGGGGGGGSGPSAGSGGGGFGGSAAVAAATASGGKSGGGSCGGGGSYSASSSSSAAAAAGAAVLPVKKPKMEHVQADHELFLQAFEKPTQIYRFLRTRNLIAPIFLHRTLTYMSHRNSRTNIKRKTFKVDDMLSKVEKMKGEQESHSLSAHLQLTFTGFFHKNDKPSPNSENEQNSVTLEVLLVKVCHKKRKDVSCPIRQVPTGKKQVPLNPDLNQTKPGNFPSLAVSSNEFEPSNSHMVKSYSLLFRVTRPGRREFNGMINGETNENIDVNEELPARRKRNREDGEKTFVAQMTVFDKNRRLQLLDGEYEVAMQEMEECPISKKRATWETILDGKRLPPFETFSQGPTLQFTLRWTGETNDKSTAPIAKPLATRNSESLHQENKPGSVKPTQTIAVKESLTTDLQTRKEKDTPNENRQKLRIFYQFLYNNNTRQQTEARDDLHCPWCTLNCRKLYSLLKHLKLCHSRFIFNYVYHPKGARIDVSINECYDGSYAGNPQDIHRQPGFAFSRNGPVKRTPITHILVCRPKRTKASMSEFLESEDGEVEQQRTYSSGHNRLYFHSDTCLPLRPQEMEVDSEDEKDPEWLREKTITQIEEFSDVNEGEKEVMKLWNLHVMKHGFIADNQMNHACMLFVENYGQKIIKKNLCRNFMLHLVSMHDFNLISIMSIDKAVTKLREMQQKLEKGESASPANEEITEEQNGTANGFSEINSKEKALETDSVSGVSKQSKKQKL

[2] = Y641N EZH2 IC50, Y641N mutant EZH2, H3K27Me2 oligonucleosome substrate
[3] = EZH2 IC50, wild-type EZH2 (rPRC2)

Chain of Y641N EZH2 (Q15910 whole entry Y641N): as the sequence (Q15910 whole entry) above, with Y641N counted along it
Chain of Y641N EZH2 (O75530 whole entry partner): as the sequence (O75530 whole entry partner) above
Chain of Y641N EZH2 (Q15022 whole entry partner): as the sequence (Q15022 whole entry partner) above

SMILES | IC50 (Y641N EZH2; [2]) | EC50 [1] | IC50 (EZH2 (rPRC2); [3]) | IC50 (Y641N EZH2; Y641N mutant EZH2, H3K27Me2 oligonucleosome substrate, read-out: Y641N EZH2 IC50) | IC50 (EZH2 (rPRC2); wild-type EZH2 (rPRC2), read-out: EZH2 IC50)
COc1cc(C)[nH]c(=O)c1CNC(=O)c1c(C)n(C(C)C2CCN(CC(F)F)CC2)c2ccccc12 (single isomer, unassigned) [Compound 362, (R or S)-1-(1-(1-(2,2-difluoroethyl)piperidin-4-yl)ethyl)-N-((4-methoxy-6-methyl-2-oxo-1,2-dihydropyridin-3-yl)methyl)-2-methyl-1H-indole-3-carboxamide] | < 100 nM | < 400 nM | < 100 nM |  | 
CCN1CCC(C(C)n2c(C)c(C(=O)NCc3c(OC)cc(C)[nH]c3=O)c3ccccc32)CC1 (single isomer, unassigned) [Compound 360, (R or S)-1-(1-(1-ethylpiperidin-4-yl)ethyl)-N-((4-methoxy-6-methyl-2-oxo-1,2-dihydropyridin-3-yl)methyl)-2-methyl-1 H-indole-3carboxamide] | < 100 nM | 2000 to 10000 nM | < 100 nM |  | 
COc1cc(C)[nH]c(=O)c1CNC(=O)c1c(C)n(C(C)C2CCNCC2)c2ncncc12 (racemic) [Compound 333, (±)-N-((4-methoxy-6-methyl-2-oxo-1,2-dihydropyridin-3-yl)methyl)-6-methyl-7-(1-(piperidin-4-yl)ethyl)-7H-pyrrolo[2,3-d]pyrimidine-5-carboxamide] | 100 to 1000 nM | 400 to 2000 nM | < 100 nM |  | 
Cc1cc(OC(F)F)c(CNC(=O)c2c(C)n(C(C)C3CCOCC3)c3ccccc23)c(=O)[nH]1 (single isomer, unassigned) [Compound 335, (R or S)-N-((4-(difluoromethoxy)-6-methyl-2-oxo-1,2-dihydropyridin-3-yl)methyl)-2-methyl-1-(1-(tetrahydro-2 H-pyran-4-yl)ethyl)-1 H-indole-3-carboxamide] | < 100 nM | < 400 nM | < 100 nM |  | 
COc1cc(C)[nH]c(=O)c1CNC(=O)c1c(C)n(-c2cccc3ncccc23)c2ccccc12 [Compound 330, N-((4-methoxy-6-methyl-2-oxo-1,2-dihydropyridin-3-yl)methyl)-2-methyl-1-(quinolin-5-yl)-1H-indole-3-carboxamide] |  | 400 to 2000 nM |  | < 100 nM | < 100 nM
CCS(=O)(=O)C1(C(C)n2c(C)c(C(=O)NCc3c(OC)cc(C)[nH]c3=O)c3ccccc32)CCNCC1 (single isomer, unassigned) [Compound 345, (R or S)-1-(1-(4-(ethylsulfonyl)piperidin-4-yl)ethyl)-N-((4-methoxy-6-methyl-2-oxo-1,2-dihydropyridin-3-yl)methyl)-2-methyl-1 H-indole-3-carboxamide] | < 100 nM | < 400 nM | < 100 nM |  | 
CCOC(=O)CN1CCC(C(C)n2c(C)c(C(=O)NCc3c(OC)cc(C)[nH]c3=O)c3ccccc32)CC1 (single isomer, unassigned) [Compound 363, (R or S)-ethyl 2-(4-(1-(3-(((4-methoxy-6-methyl-2-oxo-1,2-dihydropyridin-3-yl)methyl)carbamoyl)-2-methyl-1 H-indol-1-yl)ethyl)piperidin-1-yl)acetate] | < 100 nM | < 400 nM | < 100 nM |  | 
COc1cc(C)[nH]c(=O)c1CNC(=O)c1c(C)n(C(C)C2CCOCC2)c2cc(-c3ccccc3)ccc12 (single isomer, unassigned) [Compound 374, (R or S)—N-((4-methoxy-6-methyl-2-oxo-1,2-dihydropyridin-3-yl)methyl)-2-methyl-6-phenyl-1-(1-(tetrahydro-2H-pyran-4-yl)ethyl)-1H-indole-3-carboxamide] | < 100 nM | < 400 nM | < 100 nM |  | 
COc1cc(C)[nH]c(=O)c1CNC(=O)c1c(C)n(C(C)C2CCN(CCO)CC2)c2ccccc12 (single isomer, unassigned) [Compound 347, (R or S)-1-(1-(1-(2-hydroxyethyl)piperidin-4-yl)ethyl)-N-((4-methoxy-6-methyl-2-oxo-1,2-dihydropyridin-3-yl)methyl)-2-methyl-1H-indole-3-carboxamide] | < 100 nM | 400 to 2000 nM | < 100 nM |  | 
